Here are results for 19 compounds from US9758527B2, “Cyclohexene derivative, preparation method therefor, and pharmaceutical composition for preventing or treating metabolic diseases, containing same as active ingredient” (HYUNDAI PHARM CO., LTD., priority 2014, dated 2017).

Structures are written as SMILES. pEC50: −log10 of the molar value. Read-outs that look alike come from different tables or passages of the source.

The target in the experiment is T1, G protein-coupled receptor 119 (GPR-119) (Mesocricetus auratus, UniProt A0A1U8CD06).
T1 construct: hamster-derived β-cells containing G protein-coupled receptor 119 (GPR-119), HIT-T15 cells; host or cells: HIT-T15 (hamster pancreatic β-cells)
T1 sequence (A0A1U8CD06 1-334): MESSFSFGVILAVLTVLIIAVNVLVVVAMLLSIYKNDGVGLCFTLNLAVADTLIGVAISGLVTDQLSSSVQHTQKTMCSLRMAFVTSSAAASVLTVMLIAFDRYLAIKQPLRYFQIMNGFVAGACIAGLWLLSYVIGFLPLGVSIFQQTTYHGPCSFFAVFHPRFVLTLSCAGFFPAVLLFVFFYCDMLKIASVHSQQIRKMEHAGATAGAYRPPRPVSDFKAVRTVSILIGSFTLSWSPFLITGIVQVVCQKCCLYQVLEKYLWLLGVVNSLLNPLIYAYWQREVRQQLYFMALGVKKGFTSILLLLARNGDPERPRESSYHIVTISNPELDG
Description: Evaluation of cAMP activity in HIT-T15 cells (HTRF cAMP dynamic kit). In kind it is cell-based, hamster. The conditions noted are these: cAMP activation. An outline of the steps: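 HIT-T15 cells, 60,000/well, treated next day with compound at six concentrations ([…]) for 1 h at 37° C. Lysate cAMP quantified by HTRF competitive immunoassay (D2-cAMP, cryptate anti-cAMP); activity taken as change in FRET signal relative to DMSO.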
Background: Time-resolved FRET reads energy transfer from a long-lived donor to a nearby acceptor.

[1] abbreviates: 1 h at 37° C., six concentrations, read-out: EC50.

On to `CCc1cnc(N2CCC(COc3ccc(C4=CCC(C(=O)N5CCC6(CC5)OCCO6)CC4)cc3)CC2)nc1` (centres unmarked) [Example 229, (4-(4-((1-(5-ethylpyrimidin-2-yl)piperidin-4-yl)methoxy)phenyl)cyclohex-3-enyl)(1,4-dioxa-8-azaspiro[4.5]decan-8-yl)methanone], for which a half-maximal response (EC50 (nM), 1 h at 37° C., six concentrations) (EC50) required 11 nM. Where the note is “EC50 value”, the pEC50 (usually the EC50 on a negative log10 scale, so that one unit is a factor of ten) is not below 7.30.

As for `CCc1cnc(N2CCC(COc3ccc(C4=CCC(C(=O)N5CC[C@H](CO)C5)CC4)cc3)CC2)nc1` (stereo partly drawn) [Example 152, (4-(4-((1-(5-ethylpyrimidin-2-yl)piperidin-4-yl)methoxy)phenyl)cyclohex-3-enyl)((S)-3-(hydroxymethyl)pyrrolidin-1-yl)methanone], the pEC50 reads like this: under setting [1], 7.44; (read-out: EC50 value) not below 7.30.

Turning to `CC(C)(C)OC(=O)N1CCC(COc2ccc(C3=CCC(C(=O)N4CCC(O)CC4)CC3)cc2)CC1` (centres unmarked) [Example 225, tert-butyl 4-((4-(4-(4-hydroxypiperidine-1-carbonyl)cyclohex-1-enyl)phenoxy)methyl)piperidine-1-carboxylate], the negative logarithm of the EC50 (pEC50) under setting [1] is 7.66 and the negative logarithm of the EC50 (pEC50) (read-out: EC50 value) was not below 7.30.

For the compound `CC(C)(C)OC(=O)N1CCC(COc2ccc(C3=CCC(C(=O)NC[C@@H](O)CO)CC3)c(F)c2)CC1` (stereo partly drawn) [Example 131, tert-butyl 4-((4-(4-((R)-2,3-dihydroxypropylcarbamoyl)cyclohex-1-enyl)-3-fluorophenoxy)methyl)piperidine-1-carboxylate], the negative logarithm of the EC50 (pEC50) under setting [1] is 6.82.

Consider `CC(C)c1noc(N2CCC(COc3ccc(C4=CCC(C(=O)NC[C@H](C)O)CC4)cc3)CC2)n1` (stereo partly drawn) [Example 29, N-((S)-2-hydroxypropyl)-4-(4-((1-(3-isopropyl-1,2,4-oxadiazol-5-yl)piperidin-4-yl)methoxy)phenyl)cyclohex-3-enecarboxamide], for which, under setting [1], the pEC50 was 7.02.

For `CC(C)c1noc(N2CCC(COc3ccc(C4=CCC(C(=O)N5CCC[C@@H]5C(N)=O)CC4)cc3F)CC2)n1` (stereo partly drawn) [Example 116, (2R)-1-(4-(3-fluoro-4-((1-(3-isopropyl-1,2,4-oxadiazol-5-yl)piperidin-4-yl)methoxy)phenyl)cyclohex-3-enecarbonyl)pyrrolidine-2-carboxamide], the pEC50 runs as follows: under setting [1], 7.55; (read-out: EC50 value) not below 7.30.

With `CC(C)(C)OC(=O)N1CCC(COc2ccc(C3=CCC(C(=O)NCC(F)F)CC3)c(F)c2)CC1` (centres unmarked) [Example 141, tert-butyl 4-((4-(4-(2,2-difluoroethylcarbamoyl)cyclohex-1-enyl)-3-fluorophenoxy)methyl)piperidine-1-carboxylate], the pEC50 under setting [1] is 7.12.

Consider `CC(C)c1noc(N2CCC(COc3ccc(C4=CCC(C(=O)N(C)CCCN)CC4)cc3)CC2)n1` (centres unmarked) [Example 77, N-(3-aminopropyl)-4-(4-((1-(3-isopropyl-1,2,4-oxadiazol-5-yl)piperidin-4-yl)methoxy)phenyl)-N-methylcyclohex-3-enecarboxamide], for which the negative-log EC50 (pEC50) runs as follows: under setting [1], 7.92; (read-out: EC50 value) not below 7.30.

Turning to `CCN1CCN(C(=O)C2CC=C(c3ccc(OCC4CCN(C(=O)OC(C)(C)C)CC4)cc3)CC2)CC1` (centres unmarked) [Example 203, tert-butyl 4-((4-(4-(4-ethylpiperazine-1-carbonyl)cyclohex-1-enyl)phenoxy)methyl)piperidine-1-carboxylate], the pEC50 under setting [1] is 7.43.

`CC(C)c1noc(N2CCC(COc3ccc(C4=CCC(C(=O)N(C)CCCNC(=O)OC(C)(C)C)CC4)cc3)CC2)n1` (centres unmarked) [Example 76, tert-butyl 3-(4-(4-((1-(3-isopropyl-1,2,4-oxadiazol-5-yl)piperidin-4-yl)methoxy)phenyl)-N-methylcyclohex-3-enecarboxamido)propylcarbamate]: the pEC50 under setting [1] is 7.92 and the negative logarithm of the EC50 (pEC50) (read-out: EC50 value) is not below 7.30.

For the compound `CC(C)c1noc(N2CCC(COc3ccc(C4=CCC(C(=O)NCC(F)F)CC4)nc3)CC2)n1` (centres unmarked) [Example 99, N-(2,2-difluoroethyl)-4-(5-((1-(3-isopropyl-1,2,4-oxadiazol-5-yl)piperidin-4-yl)methoxy)pyridin-2-yl)cyclohex-3-enecarboxamide], under setting [1], the negative logarithm of the EC50 (pEC50) is 6.80.

On to `CC(C)c1noc(N2CCC(COc3ccc(C4=CCC(C(=O)N(C)CCO)CC4)cc3)CC2)n1` (centres unmarked) [Example 34, N-(2-hydroxyethyl)-4-(4-((1-(3-isopropyl-1,2,4-oxadiazol-5-yl)piperidin-4-yl)methoxy)phenyl)-N-methylcyclohex-3-enecarboxamide], for which the pEC50 runs as follows: under setting [1], 7.68; (read-out: EC50 value) not below 7.30.

As for `CC(C)c1noc(N2CCC(COc3ccc(C4=CCC(C(=O)NCC(C)(C)CO)CC4)cc3)CC2)n1` (centres unmarked) [Example 22, N-(3-hydroxy-2,2-dimethylpropyl)-4-(4-((1-(3-isopropyl-1,2,4-oxadiazol-5-yl)piperidin-4-yl)methoxy)phenyl)cyclohex-3-enecarboxamide], the negative-log EC50 (pEC50) is, setting by setting: under setting [1], 7.39; (read-out: EC50 value) not below 7.30.

`CC(C)(C)OC(=O)N1CCC(COc2ccc(C3=CCC(C(=O)N4CCS(=O)(=O)CC4)CC3)cc2F)CC1` (centres unmarked) [Example 73, tert-butyl 4-((2-fluoro-4-(4-(thiomorpholine-1,1-dioxide-4-carbonyl)cyclohex-1-enyl)phenoxy)methyl)piperidine-1-carboxylate]: the pEC50 is 7.96 under setting [1] and not below 7.30 (read-out: EC50 value).

Consider `CC(C)c1noc(N2CCC(COc3ccc(C4=CCC(C(=O)N5CCC[C@H]5C#N)CC4)cc3F)CC2)n1` (stereo partly drawn) [Example 115, (2S)-1-(4-(3-fluoro-4-((1-(3-isopropyl-1,2,4-oxadiazol-5-yl)piperidin-4-yl)methoxy)phenyl)cyclohex-3-enecarbonyl)pyrrolidine-2-carbonitrile], for which the negative-log EC50 (pEC50) is 7.82 under setting [1] and not below 7.30 (read-out: EC50 value).

Consider `CC(C)(C)OC(=O)N1CCC(COc2ccc(C3=CCC(C(=O)N4CCSCC4)CC3)cn2)CC1` (centres unmarked) [Example 72, tert-butyl 4-((5-(4-(thiomorpholine-4-carbonyl)cyclohex-1-enyl)pyridin-2-yloxy)methyl)piperidine-1-carboxylate], for which the pEC50 is 7.60 under setting [1] and not below 7.30 (read-out: EC50 value).

In the case of `CCN1CCN(C(=O)C2CC=C(c3ccc(OCC4CCN(c5nc(C(C)C)no5)CC4)cc3)CC2)CC1` (centres unmarked) [Example 79, (4-ethylpiperazin-1-yl)(4-(4-((1-(3-isopropyl-1,2,4-oxadiazol-5-yl)piperidin-4-yl)methoxy)phenyl)cyclohex-3-enyl)methanone], the negative-log EC50 (pEC50) under setting [1] is 7.31 and the negative logarithm of the EC50 (pEC50) (read-out: EC50 value) was not below 7.30.

For `CC(C)c1noc(N2CCC(COc3ccc(C4=CCC(C(=O)N5CC[C@H](CO)C5)CC4)cc3)CC2)n1` (stereo partly drawn) [Example 150, ((S)-3-(hydroxymethyl)pyrrolidin-1-yl)(4-(4-((1-(3-isopropyl-1,2,4-oxadiazol-5-yl)piperidin-4-yl)methoxy)phenyl)cyclohex-3-enyl)methanone], the pEC50 was 7.72 under setting [1] and not below 7.30 (read-out: EC50 value).

On to `CC(C)c1noc(N2CCC(COc3ccc(C4=CCC(C(=O)N[C@@H](C)CO)CC4)nc3)CC2)n1` (stereo partly drawn) [Example 37, N-((S)-1-hydroxypropan-2-yl)-4-(5-((1-(3-isopropyl-1,2,4-oxadiazol-5-yl)piperidin-4-yl)methoxy)pyridin-2-yl)cyclohex-3-enecarboxamide], for which the pEC50 under setting [1] was 6.52.
